Data on one molecule can be found in US12559472B2, “Salts of a compound and the crystalline forms thereof” (HUTCHISON MEDIPHARMA LIMITED, priority 2019, dated 2026).

SMILES strings stand for the structures. Values after ≈ are worked out from the molar mass of the structure shown.

Data set [1] in a line: Solubility in buffers with different pHs and in water (Example 19). Format: physicochemical. Particulars: for solubility at 30 min: 37 °C, thermodynamic from solid. The protocol: The solubility results were all calculated based on the free form. The buffers with different pHs were prepared according to the United States Pharmacopeia (USP40-NF35).
A further data set has as its system FGFR. Particulars: cited from earlier work.

For the molecule `CNC(=O)c1cc(CCc2cnc(Nc3ccc(N4C[C@@H](C)N[C@@H](C)C4)cc3)nc2)c(Cl)c(OC)c1` [Compound 78, 4-chloro-3-(2-(2-((4-((3S,5R)-3,5-dimethylpiperazin-1-yl)phenyl)amino)pyrimidin-5-yl)ethyl)-5-methoxy-N-methylbenzamide], the “Solubility (in words)” value in data set [1] (all test media) was “greatly different solubility in different media”. Besides, the solubility (as a rule, the concentration that dissolves in the medium under given conditions) at 30 min in data set [1] (pH 1.2 buffer (USP), pH 1.2, simulated gastric fluid, pH 1.2 buffer, 30 minutes, calculated based on the free form) was 721 µg/mL (≈ 1420 µM); in data set [1] (pH 2.1 buffer (USP), pH 2.1, aqueous buffer, pH 2.1 buffer, 30 minutes, calculated based on the free form) it was 174 µg/mL (≈ 342 µM); in data set [1] (pH 4.5 buffer (USP), pH 4.5, aqueous buffer, pH 4.5 buffer, 30 minutes, calculated based on the free form) it was no more than 12600 µg/mL; in data set [1] (pH 6.8 buffer (USP), pH 6.8, aqueous buffer, pH 6.8 buffer, 30 minutes, calculated based on the free form), 67.5 µg/mL (≈ 133 µM); in data set [1] (purified water, water, 30 minutes, calculated based on the free form), 2.3 µg/mL (≈ 4.52 µM). The Solubility (commonly the concentration that dissolves in the medium under given conditions) in data set [1] (pH 4.5 buffer, 37° C., 30 minutes, calculated based on the free form) is 12.5888 mg/mL (≈ 24700 µM). The “Inhibition of FGFR activity” value with FGFR is listed as “can effectively inhibit FGFR activity”.
